Assay results taken from the supplement of paper PMC10307832.

How the values were obtained:
Experiment in all cases: relative viability (nuclei count vs DMSO), 5 days (fraction); higher = more cells survive
Dasatinib + OSI-027 = compound: Cc1nc(Nc2ncc(C(=O)Nc3c(C)cccc3Cl)s2)cc(N2CCN(CCO)CC2)n1 [Dasatinib] + COc1cccc2cc(-c3nc([C@H]4CC[C@H](C(=O)O)CC4)n4ncnc(N)c34)[nH]c12 [OSI-027] (partner 0.5 µM)
In short: (§1)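 One day after seeding in 1536-well plates, lung cancer cell lines were dosed by pin tool. Dosing was either single-drug or a fixed anchor-drug dose plus five library-drug doses (not always all listed) in √10 steps. After 5 days, nuclei were stained in one fix-and-stain step and counted on 4× images, and relative viability is the nuclei count of treated wells over that of vehicle wells, given as the median of duplicate plates.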

Dasatinib + Lapatinib = compound: Cc1nc(Nc2ncc(C(=O)Nc3c(C)cccc3Cl)s2)cc(N2CCN(CCO)CC2)n1 [Dasatinib] + CS(=O)(=O)CCNCc1ccc(-c2ccc3ncnc(Nc4ccc(OCc5cccc(F)c5)c(Cl)c4)c3c2)o1 [Lapatinib] (partner 2 µM)
In short: as §1

Dasatinib + Phenformin = compound: Cc1nc(Nc2ncc(C(=O)Nc3c(C)cccc3Cl)s2)cc(N2CCN(CCO)CC2)n1 [Dasatinib] + N=C(N)NC(=N)NCCc1ccccc1 [Phenformin] (partner 250 µM)
In short: as §1

Dasatinib + Linsitinib = compound: Cc1nc(Nc2ncc(C(=O)Nc3c(C)cccc3Cl)s2)cc(N2CCN(CCO)CC2)n1 [Dasatinib] + C[C@]1(O)C[C@@H](c2nc(-c3ccc4ccc(-c5ccccc5)nc4c3)c3c(N)nccn32)C1 [Linsitinib] (partner 1 µM)
In short: as §1

Cell Line	relative viability (Dasatinib + OSI-027; first compound 0.005 µM)	relative viability (Dasatinib + OSI-027; first compound 0.01581 µM)	relative viability (Dasatinib + OSI-027; first compound 0.05 µM)	relative viability (Dasatinib + OSI-027; first compound 0.1581 µM)	relative viability (Dasatinib + OSI-027; first compound 0.5 µM)	relative viability (Dasatinib + Lapatinib; first compound 0.005 µM)	relative viability (Dasatinib + Lapatinib; first compound 0.01581 µM)	relative viability (Dasatinib + Lapatinib; first compound 0.05 µM)	relative viability (Dasatinib + Lapatinib; first compound 0.1581 µM)	relative viability (Dasatinib + Lapatinib; first compound 0.5 µM)	relative viability (Dasatinib + Phenformin; first compound 0.005 µM)	relative viability (Dasatinib + Phenformin; first compound 0.01581 µM)	relative viability (Dasatinib + Phenformin; first compound 0.05 µM)	relative viability (Dasatinib + Phenformin; first compound 0.1581 µM)	relative viability (Dasatinib + Phenformin; first compound 0.5 µM)	relative viability (Dasatinib + Linsitinib; first compound 0.005 µM)	relative viability (Dasatinib + Linsitinib; first compound 0.01581 µM)	relative viability (Dasatinib + Linsitinib; first compound 0.05 µM)	relative viability (Dasatinib + Linsitinib; first compound 0.1581 µM)	relative viability (Dasatinib + Linsitinib; first compound 0.5 µM)
COR-L 105	0.555	0.467	0.418	0.262	0.222	0.352	0.301	0.28	0.256	0.318	0.441	0.378	0.312	0.278	0.16	0.753	0.522	0.689	0.366	0.263
LU99A	0.296		0.264	0.232	0.216	0.954	0.838	0.914	0.628	0.489	0.845		0.888	0.752	0.472	0.494	0.481	0.434	0.199	0.173
H3255	0.639	0.484	0.653	0.44	0.274	0.303	0.212	0.208	0.155	0.204	0.312	0.344	0.341	0.322	0.274	0.929	0.918	0.957	0.658	0.287
NCI-H1734	0.562	0.432	0.476	0.411	0.307	1.02	0.755	0.894	0.508	0.531	0.314	0.328	0.288	0.249	0.235	0.678	0.693	0.64	0.394	0.331
NCI-H650	0.591	0.524	0.493	0.303	0.265	0.471	0.907	0.723	0.555	0.387	0.496	0.438	0.433	0.375	0.317	0.847	0.941	0.892	0.416	0.396
NCI-H1915	0.559	0.516	0.463	0.187	0.164	0.939	0.892	0.87	0.382	0.242	0.339	0.313	0.266	0.17	0.164	1.11	1.03	0.921	0.488	0.288
NCI-H2009	0.698	0.501	0.407	0.189	0.158	1.13	1	0.96	0.305	0.151	0.554	0.47	0.366	0.206	0.187	1.21	1.02	1.23	0.821	0.193
NCI-H1651	0.801	0.503	0.529	0.572	0.487	0.864	0.573	0.648	0.625	0.489	0.355	0.285	0.308	0.35	0.241	0.894	0.746	0.551	0.474	0.498
HOP-62	0.856	0.864	0.743	0.546	0.196	1.02	0.971	0.789	0.983	0.337	0.687	0.608	0.704	0.569	0.281	1.07	1.07	0.85	0.682	0.297
CAL-12T	0.845	0.819	0.846	0.375	0.221	0.624	0.551	0.597	0.252	0.172	0.574	0.554	0.411	0.273	0.174	0.848	0.853	0.853	0.46	0.286
NCI-H3122	0.994	1.01	1.05	0.921	0.82	0.999	1.02	1.02	1.01	0.84	0.36	0.364	0.363	0.326	0.295	1.03	1.05	1.03	0.762	0.815
NCI-H1395	0.615	0.7	0.541	0.361	0.35	0.926	0.954	0.678	0.479	0.466	0.398	0.435	0.369	0.305	0.304	1.24	1.05	0.887	0.451	0.343
PC-14	0.99	0.772	0.679	0.384	0.0679	0.29	0.282	0.242	0.208	0.0848	0.618	0.681	0.553	0.339	0.152	1	0.968	0.93	0.546	0.281
BEN	0.262	0.233	0.218	0.214	0.187	0.617	0.362	0.432	0.312	0.336	0.249	0.213	0.249	0.241	0.206	0.776	0.476	0.531	0.38	0.322
EPLC-272H	0.33	0.338	0.252	0.29	0.091	0.866	0.913	0.938	0.79	0.346	0.313	0.252	0.386	0.261	0.0761	1.24	1.28	1.46	0.92	0.338
LK-2	0.2	0.174	0.158	0.167	0.172	0.772	0.612	0.412	0.313	0.283	0.464	0.23	0.257	0.166	0.163	0.476	0.281	0.268	0.134	0.198
